*1 amine or outer side, *2 acyl side, *3 side chain or, on linkers, in order; H or OH if unused. Where a SMILES comes first, the peptide text is derived from it. Bridges are numbered along the chain shown (N, C = ends). X1 = O=C(CCC[*:2])[*:1]
Legend:
[1] = system: differentiated 3T3-L1 adipocytes; assay: Lipid metabolism in differentiated 3T3-L1 adipocytes in vitro; format: cell-based, Murine; conditions: incubated in the presence of OEA
Method: The in vitro effect of OT on lipid metabolism in differentiated 3T3-L1 adipocytes was assayed as follows. Murine 3T3-L1 fibroblasts were differentiated towards a […] phenotype as previously described (Olson et al., 1997, Mol. Cell. Biol., 2425-2435). In brief, cells were cultured in Dulbecco's modified eagle medium (DMEM) with 4.5 g/l glucose supplemented with 10% heat-inactivated depleted calf serum (DCS) at 37° C./8% CO2. Cells were induced to differentiate, two days post confluence, by sequential incubations with: DMEM 4.5 g/l glucose, 10% fetal bovine serum (FCS) containing 1 μg/ml insulin, 0.25 μM dexamethasone and 0.5 mM isobutylmethylxanthane (IBMX) for 4 days; DMEM 4.5 g/l glucose, 10% FCS containing insulin alone for an additional 4 days; DMEM 4.5 g/l glucose, 10% FCS for 3-4 days. Differentiation was considered achieved when more than 90% of cells display an accumulation of large lipid droplets in their cytoplasm.

HFD-induced obese rats = assay: High-fat diet-induced obesity rat model, subcutaneous infusion: body weight gain, food intake, body composition; format: in vivo; conditions: for food intake / body weight gain: 14 days; for body weight gain: not observed in pair-fed group
Method: Another group of the above male Wistar rats were rendered obese as described above and were subcutaneously infused with saline or OT (NeoMPS®, Strasbourg, France) (50 nmol/day/rat) during 14 days.
The beneficial metabolic effects of OT administration were assayed in the same high-fat diet induced obesity model in rats as in Example 1 and in PPAR-alpha knockout mice (Lee et al., 1995, Mol. Cell. Biol., 15(6):3012-22). HFD-induced obese animals, saline or OT groups (see conditions under Example 1) were subcutaneously infused via minipumps (Alzet®, as above). OT was delivered at a dose of 50 nmol/day/rat during 14 days.
An EchoMRI-700 quantitative nuclear magnetic resonance (QMR) analyzer (Echo Medical Systems, Houston, Tex.) was used to measure total fat mass and lean body mass in rats at the beginning and the end of the treatment.
The beneficial metabolic effects of administration of an oxytocin derivative according to the invention (Carbetocin) were assessed in the same rat model of high-fat diet induced obesity as in Example 1. HFD-induced obese animals were subcutaneously infused via minipumps (Alzet®, as above) with saline or carbetocin (Bachem) (5 nmol/day/rat or 50 nmol/day/rat) during 14 days.
Body composition parameters were measured by quantitative nuclear magnetic resonance as described in Example 3 at the beginning and 10 days of treatment.

Row | SMILES | mRNA expression of PPAR-alpha [1] | mRNA expression of most of the PPAR-alpha related genes (Acadm, Acox1, Ehhadh, Ucp3) [1] | food intake (HFD-induced obese rats; s.c. 5 nmol/day) | body weight gain (HFD-induced obese rats; s.c. 5 nmol/day) | food intake (HFD-induced obese rats; s.c. 50 nmol/day) | body weight gain (HFD-induced obese rats; s.c. 50 nmol/day) | fat mass (QMR) (HFD-induced obese rats; s.c. carbetocin (5 nmol/d and 50 nmol/d groups), 10 days, independent of food intake)
1 | CCCCCCCC/C=C\CCCCCCCC(=O)NCCO [OEA, Oleoylethanolamide] | induce | induce |  |  |  |  | 
2 | CC[C@H](C)[C@@H]1NC(=O)[C@H](Cc2ccc(OC)cc2)NC(=O)CCCSC[C@@H](C(=O)N2CCC[C@H]2C(=O)N[C@@H](CC(C)C)C(=O)NCC(N)=O)NC(=O)[C@H](CC(N)=O)NC(=O)[C@H](CCC(N)=O)NC1=O [carbetocin, Butyryl-Tyr(Me)-Ile-Gln-Asn-Cys-Pro-Leu-Gly-NH2] (Y(Me)IQNCPLG-NH2; linker N-5 via X1) |  |  | decreased | decreased | decreased | decreased | significant decrease

— patent US9101569B2, “Methods for the treatment of insulin resistance” (UNIVERSITE DE GENEVE, priority 2010, dated 2015)
